Earlier results as cited in patent publication US20240216546A1, “MODEL OPTIMIZED DRUG AND DRUG COMBINATIONS FOR TREATING CANCERS” (My Personal Therapeutics, priority 2021, published 2024).

Tested on: non-small cell lung cancer
Conditions: erlotinib in combination with first line chemotherapy (carboplatin and paclitaxel)
[1] = patients with the KRAS mutation

For `C#Cc1cccc(Nc2ncnc3cc(OCCOC)c(OCCOC)cc23)c1` [erlotinib], the time-to-progression (group with wild-type KRAS) is given as 12 months, the overall survival [1] is given as “four” and the time to progression [1] is given as “three”.
